What was measured:
[1] = system: human tumor-infiltrating lymphocytes (TIL); test: Expansion of TIL ex vivo from human tumor fragments (pre-REP, 24-well plate); type: cell-based; settings: for Percentage of total cell number relative to IL-2 alone on day 17: alone or with IL-2 6000 IU/mL
Description: Samples of human ovarian and colon tumors were obtained from the Cooperative Human Tissue Network (CHTN, c/o Vanderbilt University Medical Center, Nashville, Tenn.). Solid tumor specimens were carefully dissected free of surrounding fatty and necrotic areas. The tumors were sliced into 8 mm^3 (2×2×2 mm^3) fragments under sterile conditions using a scalpel and a scalpel holder.
(§1) The plates were placed in a humidified 37° C. incubator with 5% CO2. Half of the medium was replaced every two days after culture initiation. […] Subsequently, half the media was replaced thrice weekly, cultures were split to maintain a cell density of 1×10^6 cells/mL. […] Mitochondrial markers including, Mitotracker, Mitoprobe, and 2-NBDG may also be used to assess differentiation and/or activation of cells.

[2] = system: human tumor-infiltrating lymphocytes (TIL); test: Rapid Expansion Protocol (REP) of TIL; type: cell-based; settings: alone or with IL-2 6000 IU/mL
Description: PBMC, OKT3 antibody (30 ng/mL), complete medium (“CM”), AIM V media (GIBCO/BRL), and TIL effector cells were combined, mixed, and aliquoted to a 75 cm^2 tissue culture flask. Flasks were incubated upright at 37° C. in 5% CO2. […] About 14 days after initiation of the REP, cells were harvested and cryopreserved for future experimental analysis.

[3] = system: human tumor-infiltrating lymphocytes (TIL); test: Flow cytometry immunophenotyping of expanded TIL (lineage and memory markers); type: cell-based; settings: for CD4 TCM CD62L+ CCR7+, percentage of total TIL cell number on day 28: TIL1 population, alone or with IL-2
Description: as §1
T lymphocytes were defined based on lineage and differentiation marker expression according to the developmental model (Restifo, Blood, 124:476-477, 2014), as shown in Table 4.

[4] = system: human T cells from peripheral blood mononuclear cells; test: Expansion of CMV pp65 reactive T cells from peripheral blood mononuclear cells; type: cell-based; settings: for Percentage of total cell number relative to IL-2 alone on day 11: alone or with IL-2 2 ng/mL
Source text: At day eleven, cells were pooled and counted, and immunophenotyped at day 11 by flow cytometry by measuring expression of lineage (CD4, CD8) and differentiation (including CD45RA, CD45RO, CD95, CCR7, CD62L, TCF1, PD-1, TIM3, LAG3) markers.

OT-1 cells = test: Re-stimulation of harvested splenocytes with OVA Class I peptide; type: cell-based, mouse
Description: The expanded OT-1 cells were characterized by FACS analysis and transferred into E.G7-OVA mice, which bear ovalbumin (OVA) expressing tumors. Following in vivo transfer of expanded OT-1 cells, antitumor response was monitored over time and the quality and quantity of immune response was assessed at various time points. Analysis included FACS analysis on blood, tumor, and spleen samples. Analysis also included re-stimulation of splenocytes with OVA Class I peptide to evaluate the multifunctionality of the antigen-specific effector T cells.
Expanded OT-1 cells were assessed from splenocytes 11 days after transfer. Harvested splenocytes were re-stimulated with OVA Class I peptide for 72 hours.
Expanded OT-1 cells were assessed from splenocytes 11 days after transfer. Harvested splenocytes were re-stimulated with OVA Class I peptide for 4 hours.
Expanded OT-1 cells were assessed from splenocytes 11 days after transfer. Harvested splenocytes were re-stimulated with OVA Class I peptide for 24 hours.

E.G7-OVA tumor cells = test: Tumor re-challenge of long term survivors 149 days after OT-1 transfer; type: in vivo, mouse
Source text: To determine whether OT-1 cells are capable of long-term tumor protection, the long term survivors of the above experiment (FIG. 12) were re-challenged with a lethal dose of E.G7-OVA tumor cells 149 days after the initial adoptive transfer of the in vitro expanded OT-1 cells. Re-challenge induced OT-1 cell expansion at the site engrafted with E.G7-OVA tumor cells expressing ovalbumin antigen, thereby effectively controlling tumor growth (FIG. 21).

[5] = system: TIL from ovarian, colon and breast cancer tissues; test: Phenotype of TIL expanded 14 days in GREX 10 flasks; type: cell-based, human; settings: GREX 10 format, versus IL-2 alone (FIG. 26)
Description: TIL directly derived from fresh ovarian, colon and breast cancer tissues (fresh, n=7) obtained after 14 days' ex vivo culture of cancer tissue fragments were analyzed by flow cytometry.
TIL directly derived from fresh ovarian, colon and breast cancer tissues (fresh, n=7) obtained after 14 days' ex vivo culture of cancer tissue fragments were analyzed by flow cytometry. FIG. 26 provides FACS data showing percentages of central memory (CD45RO+CD8+) and effector memory (CD45RO+CD8-) phenotype among CD8+CD45RO+, respectively. FACS results were expressed as the mean SEM.

[6] = Compound stability in complete RPMI with 10% human serum (mass spectrometry); type: physicochemical
Description: To assess compound stability, at day 1, 1 μM compound 103 or DMSO was added to complete RMPI containing 10% human serum and stored at either 4° C., 22° C. or 37° C. over an 11 day time period. Concentration of compound 103 was assessed at each indicated timepoint and storage temperature by mass spectrometry. Compound 103 was stable for at least 11 days in RPMI medium (FIG. 33).

C[C@@H]1CN(Cc2cc3c(c(C(F)(F)F)c2)CN(c2cccc(C4(Cc5nncn5C)COC4)c2)C3=O)CCC1(F)F [Compound 103]
Expansion of TIL in the absence of IL-2 ([1]; 0.1-10 μM Cbl inhibitor, no IL-2): considerable expansion of TIL | Percentage of total cell number relative to IL-2 alone on day 17 ([1]; TIL1 (ovary), 0.1 μM Cbl-i): 90% | Percentage of total cell number relative to IL-2 alone on day 17 ([1]; TIL1 (ovary), 1.0 μM Cbl-i): 75% | Percentage of total cell number relative to IL-2 alone on day 17 ([1]; TIL1 (ovary), 10 μM Cbl-i): 60% | Percentage of total cell number relative to IL-2 alone on day 17 ([1]; TIL2 (ovary), 0.1 μM Cbl-i): 30% | Percentage of total cell number relative to IL-2 alone on day 17 ([1]; TIL2 (ovary), 1.0 μM Cbl-i): 26% | Percentage of total cell number relative to IL-2 alone on day 17 ([1]; TIL2 (ovary), 10 μM Cbl-i): 22% | Percentage of total cell number relative to IL-2 alone on day 17 ([1]; TIL3 (ovary), 0.1 μM Cbl-i): 30% | Percentage of total cell number relative to IL-2 alone on day 17 ([1]; TIL3 (ovary), 1.0 μM Cbl-i): 43% | Percentage of total cell number relative to IL-2 alone on day 17 ([1]; TIL3 (ovary), 10 μM Cbl-i): 16% | Percentage of total cell number relative to IL-2 alone on day 17 ([1]; TIL4 (colon), 0.1 μM Cbl-i): 45% | Percentage of total cell number relative to IL-2 alone on day 17 ([1]; TIL4 (colon), 1.0 μM Cbl-i): 58% | Percentage of total cell number relative to IL-2 alone on day 17 ([1]; TIL4 (colon), 10 μM Cbl-i): 54% | Percentage of total cell number relative to IL-2 alone on day 17 ([1]; TIL5 (ovary), 0.1 μM Cbl-i): 50% | Percentage of total cell number relative to IL-2 alone on day 17 ([1]; TIL5 (ovary), 1.0 μM Cbl-i): 70% | Percentage of total cell number relative to IL-2 alone on day 17 ([1]; TIL5 (ovary), 10 μM Cbl-i): 90% | Percentage of total cell number relative to IL-2 alone on day 17 ([1]; TIL6 (ovary), 0.1 μM Cbl-i): 93% | Percentage of total cell number relative to IL-2 alone on day 17 ([1]; TIL6 (ovary), 1.0 μM Cbl-i): 87% | Percentage of total cell number relative to IL-2 alone on day 17 ([1]; TIL6 (ovary), 10 μM Cbl-i): 80% | Percentage of total cell number relative to IL-2 alone on day 42 (Pre-REP and REP) ([2]; TIL1 (ovary), 0.1 μM Cbl-i): 40% | Percentage of total cell number relative to IL-2 alone on day 42 (Pre-REP and REP) ([2]; TIL1 (ovary), 1.0 μM Cbl-i): 42% | Percentage of total cell number relative to IL-2 alone on day 42 (Pre-REP and REP) ([2]; TIL1 (ovary), 10 μM Cbl-i): 32% | Percentage of total cell number relative to IL-2 alone on day 42 (Pre-REP and REP) ([2]; TIL3 (ovary), 1.0 μM Cbl-i): 150% | Percentage of total cell number relative to IL-2 alone on day 42 (Pre-REP and REP) ([2]; TIL4 (colon), 0.1 μM Cbl-i): 80% | Percentage of total cell number relative to IL-2 alone on day 42 (Pre-REP and REP) ([2]; TIL4 (colon), 1.0 μM Cbl-i): 80% | Percentage of total cell number relative to IL-2 alone on day 42 (Pre-REP and REP) ([2]; TIL6 (ovary), 0.1 μM Cbl-i): 51% | Percentage of total cell number relative to IL-2 alone on day 42 (Pre-REP and REP) ([2]; TIL6 (ovary), 1.0 μM Cbl-i): 63% | Percentage of total cell number relative to IL-2 alone on day 42 (Pre-REP and REP) ([2]; TIL6 (ovary), 10 μM Cbl-i): 49% | CD4 TCM CD62L+ CCR7+, percentage of total TIL cell number on day 28 ([3]; 0.1 μM Cbl-i): 2.8% | CD4 TCM CD62L+ CCR7+, percentage of total TIL cell number on day 28 ([3]; 1.0 μM Cbl-i): 8.0% | Phenotype of human TIL expanded ex vivo ([3]; Table 5): TCM (CD45RO+, CD95+, CCR7+, CD62L+) or TEM (CD45RO+, CD95+, CCR7−, CD62L−) phenotype | Expansion of CD8+ versus CD4+ T lymphocytes in TIL culture ([3]; tumor sample, FIG. 7): selectively expand CD8+ T lymphocytes | Percentage of total cell number relative to IL-2 alone on day 11 ([4]; Donor 1, 0.1 μM Cbl-i): 12% | Percentage of total cell number relative to IL-2 alone on day 11 ([4]; Donor 1, 1.0 μM Cbl-i): 12% | Percentage of total cell number relative to IL-2 alone on day 11 ([4]; Donor 1, 10 μM Cbl-i): 44% | Percentage of total cell number relative to IL-2 alone on day 11 ([4]; Donor 2, 0.1 μM Cbl-i): 70% | Percentage of total cell number relative to IL-2 alone on day 11 ([4]; Donor 2, 1.0 μM Cbl-i): 95% | Percentage of total cell number relative to IL-2 alone on day 11 ([4]; Donor 2, 10 μM Cbl-i): 45% | Percentage of total cell number relative to IL-2 alone on day 11 ([4]; Donor 3, 1.0 μM Cbl-i): 75% | Percentage of total cell number relative to IL-2 alone on day 11 ([4]; Donor 3, 10 μM Cbl-i): 38% | Expansion of T cells in the absence of IL-2 ([4]; PBMC, no IL-2): considerable expansion of T cells | Exhaustion markers (PD1 and TIM3) in multifunctional cells (OT-1 cells; OVA Class I peptide 4 hours, versus IL-2 alone (FIG. 16C)): lower level of expression of exhaustion markers (PD1 and TIM3) | Multifunctionality (IFN-gamma and TNF-alpha double positive cells) (OT-1 cells; OVA Class I peptide 4 hours, versus IL-2 alone (FIGS. 16A, 16B)): comparable multifunctionality | IL-2 production upon restimulation (OT-1 cells; OVA Class I peptide 24 hours (FIG. 17B)): increased IL-2 production upon restimulation | Ability to proliferate in response to peptide restimulation (OT-1 cells; splenocytes 11 days after transfer, OVA Class I peptide 72 hours (FIG. 15)): superior intrinsic ability to proliferate in response to peptide restimulation | Protection from tumor re-challenge (FIG. 21) (E.G7-OVA tumor cells; OT-1 cells expanded in vitro): potent memory cells capable of protecting mice from tumor re-challenge | Number of OT-1 cells in blood 149 days after initial adoptive transfer (E.G7-OVA tumor cells; before re-challenge (FIG. 22A)): higher number in the blood | Recall response, number of OT-1 cells per ml of blood (E.G7-OVA tumor cells; day 5 after tumor re-challenge, versus IL-2 alone (FIG. 22B)): significantly more rapid recall response | CD8+ central memory T cells [5]: increases CD8+ central memory T cells | Stability in RPMI medium ([6]; 1 μM, complete RPMI with 10% human serum, 4° C., 22° C. or 37° C. (FIG. 33)): at least 11 days | Stability at multiple temperatures (figure legend) ([6]; 4° C.-37° C., FIG. 33): stable at multiple temperatures (4° C.-37° C.) over an 11 day period

Reference: US12594263B2, “CBL inhibitors and compositions for expansion of immune cells” (Nurix Therapeutics, Inc., priority 2019, dated 2026)
